# Assay results taken from ChEMBL document CHEMBL1201862, “PubChem BioAssay data set” (2004).
# Calls of active or inactive are those of the source.
# Legend:
# X-box-binding protein 1 = X-box-binding protein 1 (Homo sapiens, UniProt P17861); format: functional, Cricetulus griseus;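 also: confirmatory dose-response counter-screen serving a CHOP assay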
# [1] = inhibitors of SNCA 5'UTR-driven reporter translation, confirmation, H4 neuroglioma cells, luminescence (AID 1988); format: functional, cell-based
# [2] = Luminescence Cell-Based Dose Response HTS to Identify Inhibitors of 5'UTR Stem-Loop Driven Prion Protein mRNA Translation in H4 Neuroglioblastoma Cells. [Related pubchem assays: 1827 (Project Summary), 1813 (Primary HTS)]; format: functional
# BJ [3] = assay: cytotoxicity toward BJ-TERT fibroblasts, dose response, cell-based, RAS-independent, luminescence (AID 1933); format: functional; details: Homo sapiens
# [4] = cytotoxicity toward DRD oncogenic fibroblasts, dose response, cell-based, non-viral oncogenic, luminescence (AID 1934); format: functional; details: Homo sapiens
# [5] = inhibitors of firefly luciferase expression or activity, dose response, H4 neuroglioma cells, luminescence (AID 1990); format: functional, cell-based
# BJ [6] = assay: cytotoxicity toward BJ-TERT-LT-ST fibroblasts, dose response, cell-based, RAS-independent, luminescence (AID 1935); format: functional; details: Homo sapiens;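 also: BJ fibroblasts immortalized with TERT plus LT and ST oncogenes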
# [7] = molecular target: T1, Heat shock factor protein 1 (Mus musculus, UniProt P38532); assay: inhibition of MG132-induced HSE-luciferase signal, confirmation, cell-based, NIH3T3, luminescence, dose retest (AID 2382); format: functional;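 also: NIH3T3 fibroblasts with HSF1-driven luciferase reporter stressed by proteasome inhibitor MG132; luminescence from HSF1-driven luciferase expression after 8 hours of MG132 stress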
# T1 sequence (P38532 whole entry): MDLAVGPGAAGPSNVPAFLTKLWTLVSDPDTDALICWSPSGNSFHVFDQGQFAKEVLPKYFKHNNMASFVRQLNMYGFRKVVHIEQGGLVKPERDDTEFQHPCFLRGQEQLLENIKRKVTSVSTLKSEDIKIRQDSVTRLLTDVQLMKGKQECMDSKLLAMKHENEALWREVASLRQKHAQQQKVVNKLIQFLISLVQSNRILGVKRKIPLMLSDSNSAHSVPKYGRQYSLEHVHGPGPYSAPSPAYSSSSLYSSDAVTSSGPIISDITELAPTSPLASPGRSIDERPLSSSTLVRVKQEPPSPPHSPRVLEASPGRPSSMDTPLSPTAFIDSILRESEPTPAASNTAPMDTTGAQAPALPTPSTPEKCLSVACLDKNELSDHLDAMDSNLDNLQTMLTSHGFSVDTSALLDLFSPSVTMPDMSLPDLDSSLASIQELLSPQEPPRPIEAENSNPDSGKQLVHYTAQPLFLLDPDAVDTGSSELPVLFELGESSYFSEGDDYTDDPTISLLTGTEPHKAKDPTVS
# J774.A1 = assay: Confirmation of image-based Screening Assay for Inhibitors of Phagocytosis. [Related pubchem assays (depositor defined):AID1029, AID1643]; format: functional, cell-based; details: Mus musculus
# BJ [8] = assay: cells; format: functional, cell-based; details: Homo sapiens
# [9] = human group III sPLA2 inhibitors, dose response, biochemical, QFRET, IC50 (AID 743457);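 also: green fluorescence rise as the enzyme cleaves BODIPY PC-A2 in liposomes; potency for inhibition of the enzyme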
# [10] = molecular target: T2, Replicative DNA helicase DnaB (Mycobacterium tuberculosis, UniProt P9WMR3); assay: DnaB intein splicing inhibitors, dose response, biochemical, cell-free fluorescence (AID 449749); format: functional
# T2 sequence (P9WMR3 whole entry): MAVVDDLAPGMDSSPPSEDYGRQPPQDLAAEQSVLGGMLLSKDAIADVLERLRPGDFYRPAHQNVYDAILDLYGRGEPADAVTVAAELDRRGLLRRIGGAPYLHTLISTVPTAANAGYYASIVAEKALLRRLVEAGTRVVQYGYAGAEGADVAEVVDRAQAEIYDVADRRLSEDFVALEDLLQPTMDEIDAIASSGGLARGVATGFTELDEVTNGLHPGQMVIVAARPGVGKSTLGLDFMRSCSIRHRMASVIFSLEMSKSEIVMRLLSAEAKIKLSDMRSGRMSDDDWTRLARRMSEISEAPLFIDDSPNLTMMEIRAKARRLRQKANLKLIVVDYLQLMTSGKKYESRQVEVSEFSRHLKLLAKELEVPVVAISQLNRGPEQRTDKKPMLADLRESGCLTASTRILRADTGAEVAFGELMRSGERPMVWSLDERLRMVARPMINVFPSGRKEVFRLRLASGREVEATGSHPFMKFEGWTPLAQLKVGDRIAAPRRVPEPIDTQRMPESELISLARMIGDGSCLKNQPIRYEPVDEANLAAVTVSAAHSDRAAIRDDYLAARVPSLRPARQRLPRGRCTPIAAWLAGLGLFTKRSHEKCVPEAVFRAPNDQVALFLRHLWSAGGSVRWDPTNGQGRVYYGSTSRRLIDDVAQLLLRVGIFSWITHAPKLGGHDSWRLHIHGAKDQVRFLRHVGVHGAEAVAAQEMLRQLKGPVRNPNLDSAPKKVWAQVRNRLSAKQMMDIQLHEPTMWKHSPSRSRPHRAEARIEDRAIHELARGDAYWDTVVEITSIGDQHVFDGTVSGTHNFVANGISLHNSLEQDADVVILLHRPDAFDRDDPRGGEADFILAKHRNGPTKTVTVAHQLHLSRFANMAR
# Protein RecA = molecular target: T3, Protein RecA (Mycobacterium tuberculosis, UniProt P9WHJ3); assay: Fluorescence Cell-Free Homogeneous Dose Retest to Identify Inhibitors of RecA-Intein Splicing Activity. [Related pubchem assays (depositor defined):AID2097, AID2223, AID489010, AID492950]; format: functional
# T3 sequence (P9WHJ3 whole entry): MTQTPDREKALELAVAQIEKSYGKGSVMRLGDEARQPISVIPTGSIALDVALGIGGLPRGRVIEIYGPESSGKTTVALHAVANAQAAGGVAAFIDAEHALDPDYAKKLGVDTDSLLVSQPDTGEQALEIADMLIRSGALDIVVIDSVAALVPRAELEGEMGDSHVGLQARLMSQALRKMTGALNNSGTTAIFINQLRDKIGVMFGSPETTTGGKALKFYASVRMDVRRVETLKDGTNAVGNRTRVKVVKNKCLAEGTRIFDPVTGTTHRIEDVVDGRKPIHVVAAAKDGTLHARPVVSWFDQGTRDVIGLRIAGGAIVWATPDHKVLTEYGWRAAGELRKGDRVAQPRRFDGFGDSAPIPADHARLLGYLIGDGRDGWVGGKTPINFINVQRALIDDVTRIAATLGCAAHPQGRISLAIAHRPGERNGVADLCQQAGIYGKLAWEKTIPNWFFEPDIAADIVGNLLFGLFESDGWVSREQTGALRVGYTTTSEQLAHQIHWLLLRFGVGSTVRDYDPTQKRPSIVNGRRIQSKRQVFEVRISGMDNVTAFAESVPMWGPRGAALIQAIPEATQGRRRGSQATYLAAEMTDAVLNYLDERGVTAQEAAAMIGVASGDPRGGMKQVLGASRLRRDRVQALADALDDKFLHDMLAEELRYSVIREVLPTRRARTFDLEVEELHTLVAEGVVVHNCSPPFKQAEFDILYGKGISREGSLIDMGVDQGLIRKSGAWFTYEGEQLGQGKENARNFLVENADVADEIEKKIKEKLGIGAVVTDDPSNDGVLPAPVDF
# [11] = control 3'UTR Renilla luciferase suppression, dose response, counter-screen for Shn3 inhibitor project, cell-based, Clone20-Shn3RL, cherry-picked (AID 624133); format: functional
# [12] = HepG2 cell cytotoxicity, dose response, cytotoxicity control for Shn3 inhibitor project, CellTiter-Glo, cherry-picked (AID 624134); format: functional, cell-based
# [13] = Shn3 3'UTR reporter inhibitors, dose response, cell-based, Clone20 osteoblasts, firefly luciferase, cherry-picked (AID 624132); format: functional;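 also: firefly luciferase luminescence from reporter carrying the Shn3 3'UTR in osteoblasts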
# [14] = molecular target: Neurotensin receptor type 1 (Homo sapiens, UniProt P30989); format: functional;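 also: Image-based confirmatory dose-response assay measuring agonist activity at NTR1; NTR1-expressing U2OS osteosarcoma cells imaged for beta-arrestin GFP spot formation; agonist potency where compounds increase beta-arrestin recruitment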
# Chain of Neurotensin receptor type 1 (P30989 whole entry): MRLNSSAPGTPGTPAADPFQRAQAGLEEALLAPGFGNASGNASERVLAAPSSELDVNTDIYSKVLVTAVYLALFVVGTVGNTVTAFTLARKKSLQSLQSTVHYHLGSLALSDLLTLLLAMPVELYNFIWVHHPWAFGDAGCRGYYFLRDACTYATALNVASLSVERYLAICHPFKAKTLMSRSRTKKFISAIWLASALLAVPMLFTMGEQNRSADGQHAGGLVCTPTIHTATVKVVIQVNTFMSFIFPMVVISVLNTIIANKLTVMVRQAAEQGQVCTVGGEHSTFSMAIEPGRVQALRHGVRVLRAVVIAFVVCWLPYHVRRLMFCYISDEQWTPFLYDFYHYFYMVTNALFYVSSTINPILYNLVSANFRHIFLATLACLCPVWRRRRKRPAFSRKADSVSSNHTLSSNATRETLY
# [15] = ADAM10 protease inhibitors, dose response, selectivity assay for ADAM17 exosite inhibitor project, biochemical, FRET peptide substrate, recombinant human ADAM10 (AID 743259);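 also: ADAM10 enzyme cleaving a FRET peptide substrate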
# NS3 = NS3 (Hepatitis C virus, UniProt A3EZJ3); assay: PubChem AID 2173; set-up: species or system Hepacivirus hominis
# Chain of NS3 (A3EZJ3 whole entry): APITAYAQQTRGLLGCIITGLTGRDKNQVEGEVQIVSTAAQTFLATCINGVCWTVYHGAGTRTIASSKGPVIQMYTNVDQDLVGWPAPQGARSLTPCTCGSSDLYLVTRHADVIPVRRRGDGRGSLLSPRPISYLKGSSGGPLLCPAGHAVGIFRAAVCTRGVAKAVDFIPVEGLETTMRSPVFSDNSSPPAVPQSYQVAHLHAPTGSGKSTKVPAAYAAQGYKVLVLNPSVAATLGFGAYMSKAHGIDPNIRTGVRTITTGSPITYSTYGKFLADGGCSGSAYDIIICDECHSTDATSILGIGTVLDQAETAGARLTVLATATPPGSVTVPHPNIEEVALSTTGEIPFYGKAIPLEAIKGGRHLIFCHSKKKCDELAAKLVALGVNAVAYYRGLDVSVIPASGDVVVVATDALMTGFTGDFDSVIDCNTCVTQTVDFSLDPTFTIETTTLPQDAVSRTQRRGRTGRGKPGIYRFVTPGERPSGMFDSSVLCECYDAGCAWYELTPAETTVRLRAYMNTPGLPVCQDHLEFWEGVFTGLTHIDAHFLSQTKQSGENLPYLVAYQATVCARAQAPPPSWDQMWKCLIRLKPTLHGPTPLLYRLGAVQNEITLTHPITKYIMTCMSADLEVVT
# Vero = Vero cell cytotoxicity, cytotoxicity control for flavivirus capping enzyme inhibitors (AID 588742); format: functional; details: Chlorocebus sabaeus
# [16] = molecular target: Disintegrin and metalloproteinase domain-containing protein 17 (Homo sapiens, UniProt P78536); assay: exosite inhibitors of ADAM17, dose response, biochemical (AID 743260)
# Chain of Disintegrin and metalloproteinase domain-containing protein 17 (P78536 whole entry, the tested form may be a part): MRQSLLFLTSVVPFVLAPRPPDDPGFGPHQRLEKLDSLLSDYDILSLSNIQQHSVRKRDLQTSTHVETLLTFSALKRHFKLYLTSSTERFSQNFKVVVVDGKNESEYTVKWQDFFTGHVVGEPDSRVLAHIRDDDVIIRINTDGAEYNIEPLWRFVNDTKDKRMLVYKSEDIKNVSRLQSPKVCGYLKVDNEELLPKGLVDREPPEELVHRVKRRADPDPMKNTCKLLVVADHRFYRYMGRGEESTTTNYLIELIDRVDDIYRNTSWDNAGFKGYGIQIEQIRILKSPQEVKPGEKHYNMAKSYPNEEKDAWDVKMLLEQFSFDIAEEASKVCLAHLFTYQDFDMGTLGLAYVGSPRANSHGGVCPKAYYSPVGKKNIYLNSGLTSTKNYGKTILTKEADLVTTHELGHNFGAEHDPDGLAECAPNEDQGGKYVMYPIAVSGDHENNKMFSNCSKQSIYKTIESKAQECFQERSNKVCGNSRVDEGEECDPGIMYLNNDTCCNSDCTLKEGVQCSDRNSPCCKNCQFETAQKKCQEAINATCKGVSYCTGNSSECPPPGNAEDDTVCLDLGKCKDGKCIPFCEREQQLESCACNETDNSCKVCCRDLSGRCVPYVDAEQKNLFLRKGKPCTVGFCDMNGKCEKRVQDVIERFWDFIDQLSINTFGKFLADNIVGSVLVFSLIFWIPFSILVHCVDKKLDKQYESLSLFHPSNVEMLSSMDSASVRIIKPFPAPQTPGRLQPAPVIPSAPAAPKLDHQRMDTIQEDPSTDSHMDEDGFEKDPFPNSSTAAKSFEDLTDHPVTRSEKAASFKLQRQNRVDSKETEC
# H9c2 = assay: cells; format: functional, cell-based; details: Rattus norvegicus, H9c2, Myocardium;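 also: confirmatory concentration-response retest of ultra-high-throughput screening hits for modulation of myocardial damage; cell death induced by hydrogen peroxide oxidative stress; compound pretreatment for 60 min then peroxide exposure for 2 h; potency is for protecting the cells against peroxide damage rather than for killing them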
# [17] = molecular target: T4, Histone-lysine N-methyltransferase NSD2 (Homo sapiens, UniProt O96028); format: biochemical
# T4 sequence (O96028 whole entry): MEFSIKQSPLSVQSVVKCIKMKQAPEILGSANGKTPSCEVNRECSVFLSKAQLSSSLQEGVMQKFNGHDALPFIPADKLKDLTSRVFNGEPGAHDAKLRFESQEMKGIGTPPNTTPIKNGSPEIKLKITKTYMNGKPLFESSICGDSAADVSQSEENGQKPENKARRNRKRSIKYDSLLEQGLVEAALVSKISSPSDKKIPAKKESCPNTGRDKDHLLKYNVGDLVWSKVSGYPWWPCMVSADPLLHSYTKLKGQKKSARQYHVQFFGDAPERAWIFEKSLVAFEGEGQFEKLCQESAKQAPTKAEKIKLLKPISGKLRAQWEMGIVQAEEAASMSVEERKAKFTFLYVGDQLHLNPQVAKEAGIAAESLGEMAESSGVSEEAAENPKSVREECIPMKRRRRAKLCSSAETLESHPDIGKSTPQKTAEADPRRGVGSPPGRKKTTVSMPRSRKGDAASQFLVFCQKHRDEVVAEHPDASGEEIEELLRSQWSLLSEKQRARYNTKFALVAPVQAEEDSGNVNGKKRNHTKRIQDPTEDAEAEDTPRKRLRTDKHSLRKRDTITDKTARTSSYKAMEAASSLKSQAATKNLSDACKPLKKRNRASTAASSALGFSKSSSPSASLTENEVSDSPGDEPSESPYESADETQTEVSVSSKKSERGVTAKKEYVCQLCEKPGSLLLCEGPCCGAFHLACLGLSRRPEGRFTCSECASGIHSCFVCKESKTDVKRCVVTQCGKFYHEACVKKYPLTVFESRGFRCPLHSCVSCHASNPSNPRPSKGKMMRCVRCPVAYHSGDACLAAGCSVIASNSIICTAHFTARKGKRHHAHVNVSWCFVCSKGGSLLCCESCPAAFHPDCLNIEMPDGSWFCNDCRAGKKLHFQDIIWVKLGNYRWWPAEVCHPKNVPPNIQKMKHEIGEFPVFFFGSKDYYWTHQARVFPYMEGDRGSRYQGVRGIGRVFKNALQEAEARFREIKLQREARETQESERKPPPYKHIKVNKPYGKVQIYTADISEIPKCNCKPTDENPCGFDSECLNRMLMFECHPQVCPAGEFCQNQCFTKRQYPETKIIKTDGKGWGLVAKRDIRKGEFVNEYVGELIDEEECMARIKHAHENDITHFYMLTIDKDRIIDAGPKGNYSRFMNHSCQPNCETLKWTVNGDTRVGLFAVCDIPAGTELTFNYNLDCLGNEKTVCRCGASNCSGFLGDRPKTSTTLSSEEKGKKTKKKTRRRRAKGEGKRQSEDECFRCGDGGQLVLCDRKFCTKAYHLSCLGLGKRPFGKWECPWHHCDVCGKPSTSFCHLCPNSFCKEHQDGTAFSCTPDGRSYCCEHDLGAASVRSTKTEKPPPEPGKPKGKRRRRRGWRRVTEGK
# SUMO-activating enzyme [18] = molecular target: T5, SUMO-activating enzyme (Homo sapiens, UniProt Q9UBT2); assay: SUMOylation inhibitor hit validation, confirmation, SUMOylation inhibitor project, biochemical, AlphaScreen (AID 2018); format: functional
# T5 sequence (Q9UBE0 whole entry): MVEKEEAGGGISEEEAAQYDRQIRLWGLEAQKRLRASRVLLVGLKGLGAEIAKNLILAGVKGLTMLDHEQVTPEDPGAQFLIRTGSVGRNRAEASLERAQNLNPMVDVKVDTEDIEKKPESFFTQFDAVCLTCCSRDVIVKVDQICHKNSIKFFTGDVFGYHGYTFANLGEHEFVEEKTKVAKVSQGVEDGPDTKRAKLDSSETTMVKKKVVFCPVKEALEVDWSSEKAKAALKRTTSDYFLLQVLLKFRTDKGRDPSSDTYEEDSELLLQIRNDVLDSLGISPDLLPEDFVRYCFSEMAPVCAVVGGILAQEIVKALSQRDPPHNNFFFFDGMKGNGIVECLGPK
# T5 sequence (Q9UBT2 whole entry): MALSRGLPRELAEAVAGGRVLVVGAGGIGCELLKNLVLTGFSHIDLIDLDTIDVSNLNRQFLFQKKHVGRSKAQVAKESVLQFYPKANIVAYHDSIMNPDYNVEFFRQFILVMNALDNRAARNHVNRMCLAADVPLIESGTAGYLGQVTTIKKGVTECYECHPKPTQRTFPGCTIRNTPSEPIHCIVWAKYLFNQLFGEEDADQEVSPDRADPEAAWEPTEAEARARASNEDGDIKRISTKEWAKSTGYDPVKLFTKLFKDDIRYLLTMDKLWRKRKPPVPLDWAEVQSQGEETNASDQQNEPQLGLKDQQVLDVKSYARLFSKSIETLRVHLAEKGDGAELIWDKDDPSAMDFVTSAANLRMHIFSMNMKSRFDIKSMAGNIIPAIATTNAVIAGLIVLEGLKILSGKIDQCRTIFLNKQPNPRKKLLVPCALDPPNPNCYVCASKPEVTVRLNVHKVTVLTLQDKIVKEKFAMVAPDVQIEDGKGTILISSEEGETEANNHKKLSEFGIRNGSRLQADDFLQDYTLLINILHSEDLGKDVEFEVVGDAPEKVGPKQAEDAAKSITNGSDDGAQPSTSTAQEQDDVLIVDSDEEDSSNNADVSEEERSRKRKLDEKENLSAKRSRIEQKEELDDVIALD
# SUMO-activating enzyme [19] = molecular target: T5, SUMO-activating enzyme; assay: inhibitors of in vitro SUMOylation cascade, primary screen, biochemical, HTRF, uHTS (AID 2006); format: protein-complex assay
# [20] = molecular target: Eukaryotic translation initiation factor 4H (Homo sapiens, UniProt Q15056); assay: human eIF4H binding inhibitors, primary screen, translation initiation inhibitor project, biochemical, uHTS, fluorescence polarization (AID 2012)
# [21] = molecular target: Polyadenylate-binding protein 1 (Homo sapiens, UniProt P11940); assay: PABP poly(A) RNA binding inhibitors, primary screen, biochemical, fluorescence polarization, uHTS (AID 2014)
# Chain of Polyadenylate-binding protein 1 (P11940 whole entry): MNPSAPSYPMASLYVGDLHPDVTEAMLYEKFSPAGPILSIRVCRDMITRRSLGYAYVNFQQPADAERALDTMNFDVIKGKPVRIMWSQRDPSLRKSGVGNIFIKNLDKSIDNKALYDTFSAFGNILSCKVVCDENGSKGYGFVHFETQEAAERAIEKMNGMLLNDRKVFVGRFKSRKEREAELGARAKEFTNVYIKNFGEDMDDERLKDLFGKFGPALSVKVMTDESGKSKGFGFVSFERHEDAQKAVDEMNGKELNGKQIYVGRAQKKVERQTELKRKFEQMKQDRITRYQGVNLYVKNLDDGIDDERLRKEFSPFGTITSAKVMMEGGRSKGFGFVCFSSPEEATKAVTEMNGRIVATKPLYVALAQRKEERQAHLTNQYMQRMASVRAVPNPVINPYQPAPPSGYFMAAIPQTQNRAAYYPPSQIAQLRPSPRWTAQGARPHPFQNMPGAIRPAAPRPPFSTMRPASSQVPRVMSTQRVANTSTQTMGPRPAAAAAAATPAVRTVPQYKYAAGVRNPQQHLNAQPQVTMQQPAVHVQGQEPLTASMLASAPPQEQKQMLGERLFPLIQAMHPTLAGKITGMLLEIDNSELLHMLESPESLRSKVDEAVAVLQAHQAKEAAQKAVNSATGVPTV
# Chain of X-box-binding protein 1 (P17861 whole entry): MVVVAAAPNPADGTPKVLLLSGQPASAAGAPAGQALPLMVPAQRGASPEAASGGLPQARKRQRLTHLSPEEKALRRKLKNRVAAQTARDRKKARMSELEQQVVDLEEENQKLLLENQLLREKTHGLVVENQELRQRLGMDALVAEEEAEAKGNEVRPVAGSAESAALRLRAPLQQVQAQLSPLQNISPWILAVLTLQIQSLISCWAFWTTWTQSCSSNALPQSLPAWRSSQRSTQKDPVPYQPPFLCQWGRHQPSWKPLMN
structure (smiles),measurement,setting,value
CCOc1ccc(N/C=C2/C(=O)NC(=O)N(C(C)(C)C)C2=O)cc1,Absolute IC50 (XBP1),X-box-binding protein 1,10 µM
CCOc1cc(CNc2ccc3c(c2)OCCO3)cc(Br)c1OCC,EC50,[1],1.58 µM (active)
same,EC50,[2],> 120 µM (not active)
same,EC50,BJ [3],1.85 µM (active)
same,EC50,[4],1.6 µM (active)
same,EC50,[5],8.47 µM (inconclusive)
same,EC50,BJ [6],2.43 µM (inconclusive)
same,EC50,[7],2.48 µM (active)
same,IC50,J774.A1,2.51 µM (active)
same,EC50,BJ [8],15.6 µM (active)
same,IC50,[9],> 122 µM (inactive)
CC(CCc1ccccc1)NC(=O)COC(=O)c1ccc(S(C)(=O)=O)c([N+](=O)[O-])c1 (configuration not stated),AC50,[10],10 µM (active)
same,EC50,Protein RecA,3.7 µM (active)
same,AC50,[11],9.93 µM (active)
same,AC50,[12],39.4 µM (active)
same,AC50,[13],3.34 µM (active)
same,EC50,[14],9.29 µM (active)
CCOc1ccc(/C=C/C(=O)c2cc(Br)ccc(=O)c2O)cc1,IC50,[15],17.6 µM (inactive)
same,IC50,NS3,4.35 µM (active)
same,CC50,Vero,7 µM (active)
same,IC50,[16],11.4 µM (inactive)
same,IC50,H9c2,6.72 µM (active)
COc1cc2c(C#N)c(N3CCCC3)nc(N)c2c(N)n1,AC50,[17],9.62 µM (active)
same,IC50,SUMO-activating enzyme [18],5.34 µM (active)
same,IC50,SUMO-activating enzyme [19],3.79 µM (active)
O=C(NCC(=O)N1CCN(c2ccccc2O)CC1)c1ccc2c(c1)OCO2,IC50,[20],28.2 µM (active)
same,IC50,[21],> 100 µM (inactive)
